The nature of test [1]: Anti-oxidant activity (comparative Table 6). As to conditions: read-out: IC-50 Anti-Oxidant Activity; nd = not detectable at ≤ 500 uM.
The next test relates to PLA2. In words: Anti-PLA2 activity (comparative Table 6). Type of test: biochemical. As to conditions: nd = not detectable at ≤ 500 uM; read-out: IC-50 Anti-PLA2 Activity.
In a further test the target is T1, human synovial PLA2 (Homo sapiens, UniProt P14555).
T1 construct: from tissue; host or cells: human synovial (fluid)
T1 sequence (P14555 21-144): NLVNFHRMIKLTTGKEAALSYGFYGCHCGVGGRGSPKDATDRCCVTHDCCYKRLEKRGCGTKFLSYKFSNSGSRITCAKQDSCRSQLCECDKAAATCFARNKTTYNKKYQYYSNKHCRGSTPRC
In words: Inhibition of human synovial PLA2 activity in vitro. Type of test: biochemical. As to conditions: for IC50: each compound prepared as a sodium salt, FIG. 9, approximately. From the text:
FIG. 9 is a graph illustrating the ability of the compounds of the invention to inhibit PLA2 activity in vitro.

A short description of test [2]: Auto-oxidation of phosphatidylethanolamine. The class given is biochemical. As to conditions: for % Oxidized PE / % Unoxidized PE: 24 hrs; for % Oxidized PE: PE alone 39.3%; for % Unoxidized PE: PE alone 51.1%.
Test [3] can be described thus: Oxidation of arachidonic acid (decreased turbidity and hydroperoxide formation).
Test [4] concerns the target T2, human synovial fluid PLA2 (SF-PLA2) (Homo sapiens, UniProt P14555).
T2 construct: intra-articular injection of human synovial fluid PLA2 (SF-PLA2) into the mouse paw; from tissue; host or cells: human synovial fluid
T2 sequence (P14555 21-144): T1 sequence (P14555 21-144)
In words: Human SF-PLA2 induced mouse paw edema, oral administration. Type of test: in vivo. As to conditions: for % Increase Weight: control 61%. The protocol:
The mouse paw edema is inhibited in dose related fashion by increasing concentrations of RISE-1 given orally 1.0 hours before induction of the edema by SF-PLA2.

For a further test, the target named is T3, platelet PLA2 (Homo sapiens, UniProt P14555).
T3 construct: from tissue; host or cells: platelets
T3 sequence (P14555 21-144): T1 sequence (P14555 21-144)
The test can be described thus: In vitro inhibition of PLA2 derived from platelets (FIG. 8). Type of test: biochemical.

Test [5] concerns human polymorphonuclear leukocytes (PMNs). The test can be described thus: Inhibition of arachidonic acid release from prelabelled human PMNs. The following applies: Leukocyte, read-out: % Inhibition of arachidonic acid release.
In test [6] the test system is rat adjuvant induced arthritis. The test can be described thus: Rat adjuvant induced arthritis. The following applies: in vivo.
The next test concerns the target T4, human plasma PLA2 (Homo sapiens, UniProt P14555).
T4 construct: from tissue; host or cells: human plasma
T4 sequence (P14555 21-144): T1 sequence (P14555 21-144)
In words: In vitro inhibition of PLA2 derived from plasma (FIG. 8). Type of test: biochemical.

The test system of a further test is sperm PLA2. In words: In vitro inhibition of PLA2 derived from sperm (FIG. 8). The class given is biochemical, human.
The mark [7] stands for this setting: RISE-1 10 mg/kg orally 1.0 hours before SF-PLA2.
Setting [8] is: RISE-1 30 mg/kg orally 1.0 hours before SF-PLA2.
Where [9] appears, read: RISE-1 100 mg/kg orally 1.0 hours before SF-PLA2.

The results in this text go back to patent publication US5659049A, “Antioxidant, antiphospholipase derivatives of ricinoleic acid” (Virginia Commonwealth University, priority 1995, dated 1997).

Counter-ions that a name gives are not always drawn. Some results are limits rather than exact numbers.

Consider `CCCCC/C=C\C/C=C\CCCCCCCC(=O)OCC1(COC(=O)CCCCCCC/C=C\C/C=C\CCCCC)COC(=O)CN1C(=O)CCCCCCC/C=C\C/C=C\CCCCC` [PX-15], for which the IC50 in test [1] was above 500 µM.

For the molecule `CCCCCCC(O)C/C=C\CCCCCCCC(=O)OC(C/C=C\CCCCCCCC(=O)O)CCCCCC` (centres unmarked) [PX-6], the values for the IC50 (in [1]; in the test on PLA2) were 300 µM and 4.5 µM, respectively.

`CCCCC/C=C\C/C=C\CCCCCCCC(=O)OCC(N)(COC(=O)CCCCCCC/C=C\C/C=C\CCCCC)COC(=O)CCCCCCC/C=C\C/C=C\CCCCC` [PX-14]: the IC50 was 70 µM in test [1] and 4.4 µM with PLA2.

As to `CCCCCCC(C/C=C\CCCCCCCC(=O)O)OC(=O)/C=C/C(=O)OC(C/C=C\CCCCCCCC(=O)O)CCCCCC` (centres unmarked) [PX-7, Diricinoleic Acid Fumarate Diester], the IC50 in test [1] worked out at 130 µM; in the test on PLA2, 7 µM.

On to `CCCCCCCC/C=C\CCCCCCCCOC(=O)CCCCCCC/C=C\CC(CCCCCC)OC(=O)/C=C\C(=O)O` (centres unmarked) [PX-8], for which the IC50 was determined as 140 µM in [1] and 3.5 µM with PLA2.

With `CCCCCCCC/C=C\CCCCCCCC(=O)OC(C/C=C\CCCCCCCC(=O)O)CCCCCC` (centres unmarked) [PX-3, Ricinoleic Acid Oleic Acid Ester], the IC50 in test [1] is above 500 µM; at human synovial PLA2 it was 5 to 10 µM; with PLA2, 7.2 µM. Also, the “Percent Protection” value in test [2] (25 μM) came to 16%; in test [2] (50 μM), 16%; in test [2] (100 μM), 13%; in test [2] (250 μM) it was 22%; in [2] (500 μM), 27%.

Consider `Cc1cc(C(C)(C)C)c(O)c(C(C)(C)C)c1` [BHT, betahydroxytoluene, reference compound], for which the “Turbidity (430 nm)” value came out at 1.31 in test [3] (100 uM, time 0 hrs, control 1.38) and 1.283 in test [3] (100 uM, time 24 hrs, control .387). For the same molecule, the Hydroperoxide in test [3] (100 uM, time 0 hrs, control 100) came to 119 nmols; in test [3] (100 uM, time 24 hrs, control 378), 112 nmols.

In the case of `CCCCCCCC/C=C\CCCCCCCCOC(=O)CCCCCCC/C=C\CC(CCCCCC)OC(=O)/C=C/C(=O)O` (centres unmarked) [PX-5, Oleyl Alcohol-Ricinoleate-Fumaric Acid Diester], the IC50 in test [1] is 300 µM; at human synovial PLA2, 5 to 10 µM; with PLA2 it was 5 µM. Further, the “Percent Protection” value in test [2] (25 μM) stood at 28%; in test [2] (50 μM) it was 24%; in test [2] (100 μM), 31%; in test [2] (250 μM), 47%; in test [2] (500 μM), 62%.

In the case of `CCCCCCCC/C=C\CCCCCCCC(=O)OCC(COC(=O)CCCCCCC/C=C\CCCCCCCC)(COC(=O)CCCCCCC/C=C\CCCCCCCC)NCCS(=O)(=O)O` [PX-13, TES Triolears], the ED50 in test [4] (mouse, po, administered single dose orally, read-out: IC50 vs PLA2 induced mouse paw edema) is around 15 mg/kg.

For the molecule `CCCCC/C=C\C/C=C\CCCCCCCC(=O)OC(C/C=C\CCCCCCCC(=O)O)CCCCCC` (centres unmarked) [PX-4, Ricinoleic Acid Linoleic Acid Ester], the IC50 in [1] is 210 µM; at human synovial PLA2, 5 to 10 µM; with PLA2 it was 10 µM. The “Percent Protection” value in test [2] (25 μM) was found to be 13%; in [2] (50 μM) it was 22%; in [2] (100 μM) it was 38%; in test [2] (250 μM), 53%; in [2] (500 μM), 73%.

As for `CCCCCCC(C/C=C\CCCCCCCC(=O)O)OC(=O)/C=C/C(=O)O` (centres unmarked) [PX-2], the IC50 (in test [1]; in the test with PLA2) was above 500 µM each time.

For `CCCCCCC(C/C=C\CCCCCCCC(=O)O)OC(=O)CCCCCCCCC(=O)O` (centres unmarked) [RISE-1, Ricinoleic Acid Sebacyl Ester], the “Inhibition of PLA2 derived from human synovial fluid” value at human synovial PLA2 (FIG. 8) is “dose related, selective in vitro inhibition”. For the same molecule, the IC50 on human synovial PLA2 was in the range of 5 to 10 µM. Moreover, at platelet PLA2, the “Inhibition of PLA2 derived from platelets” value is “dose related, selective in vitro inhibition”. The inhibition at 25 µM in test [5] stood at 0%. The inhibition at 50 µM in test [5] was determined as 19%. The inhibition at 75 µM in test [5] stood at 38%. In addition, the inhibition at 100 µM in test [5] amounted to 72%. The “Inhibition of rat adjuvant induced arthritis” value in [6] is “does not inhibit”. The results for the “% Oxidized PE” value in [2] (25 uM) and in test [2] (100 uM) were 42.0% and 42.4%, respectively. Moreover, the “% Unoxidized PE” value in test [2] (25 uM) came out at 50.6%; in test [2] (100 uM), 49.6%. In addition, on human plasma PLA2, the “Inhibition of PLA2 derived from plasma” value was “dose related, selective in vitro inhibition”. Also, the “Turbidity (430 nm)” value in test [3] (25 uM, time 0 hrs, control 1.38) is 1.33; in test [3] (25 uM, time 24 hrs, control .387), “.524”; in test [3] (50 uM, time 0 hrs, control 1.38) it was 1.47; in test [3] (50 uM, time 24 hrs, control .387), “.348”. In addition, the Hydroperoxide amounted to 109 nmols in test [3] (25 uM, time 0 hrs, control 100); 437 nmols in [3] (25 uM, time 24 hrs, control 378); 109 nmols in [3] (50 uM, time 0 hrs, control 100); 428 nmols in [3] (50 uM, time 24 hrs, control 378). The “Inhibition of PLA2 derived from sperm” value in the test on sperm PLA2 is “dose related, selective in vitro inhibition”. The results for the “% Protection” value in test [4] (setting [7]), in test [4] (setting [8]) and in test [4] (setting [9]) were 23%, 38% and 49%, respectively. Also, the “% Increase Weight” value was found to be 47% in test [4] (setting [7]), 38% in test [4] (setting [8]) and 31% in [4] (setting [9]).
